The results in this text go back to patent publication US20250197372A1 (priority 2020, published 2025).

Common to all, as to assay type: biochemical
Experiment [1] has as its target recombinant human GAA (acid alpha-glucosidase) (Homo sapiens, UniProt P10253). The experiment in a line: Acid alpha-glucosidase (GAA) assay (4-methylumbelliferyl-alpha-D-pyranoside substrate, fluorescence). In short, it runs like this: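 Recombinant human enzyme preincubated 60 min at 37 °C with compound dilutions, then 4-methylumbelliferyl-alpha-D-pyranoside substrate added for 20 min at 37 °C. Stopped with glycine/NaOH pH 10; methylumbelliferone fluorescence (ex 365, em 440 nm) versus untreated enzyme; IC50 by 4-PL fit.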

Experiment [2] deals with T1, recombinant human GBA (beta-glucocerebrosidase) (Homo sapiens, UniProt P04062).
T1 sequence (P04062 40-536): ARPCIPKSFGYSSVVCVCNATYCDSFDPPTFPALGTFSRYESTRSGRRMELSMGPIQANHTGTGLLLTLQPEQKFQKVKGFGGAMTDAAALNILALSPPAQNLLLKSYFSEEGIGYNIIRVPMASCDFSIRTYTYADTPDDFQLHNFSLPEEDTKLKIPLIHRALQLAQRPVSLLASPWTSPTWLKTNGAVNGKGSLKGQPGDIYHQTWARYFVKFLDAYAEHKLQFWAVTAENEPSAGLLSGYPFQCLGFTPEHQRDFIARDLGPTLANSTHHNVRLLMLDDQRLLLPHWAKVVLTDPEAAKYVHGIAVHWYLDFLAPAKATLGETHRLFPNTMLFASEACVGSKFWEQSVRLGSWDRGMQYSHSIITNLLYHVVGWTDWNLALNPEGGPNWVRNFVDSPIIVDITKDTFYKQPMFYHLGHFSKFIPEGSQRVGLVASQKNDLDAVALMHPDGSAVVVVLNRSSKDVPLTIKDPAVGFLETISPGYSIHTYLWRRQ
The experiment in a line: Beta-glucocerebrosidase (GBA, glucosylceramidase) assay (4-methylumbelliferyl-beta-D-pyranoside substrate, fluorescence). In short, it runs like this:
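Recombinant human GBA preincubated with compound dilutions 60 min at 37 °C, then 4-methylumbelliferyl-beta-D-pyranoside added for 60 min at 37 °C. Stopped at pH 10 (glycine/NaOH); fluorescence ex 365/em 440 nm. IC50 from 4-PL fit of inhibition relative to untreated enzyme.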

Experiment [3] has as its target rat maltase (partially purified alpha-glucosidase from intestinal rat powder). The experiment in a line: Intestinal alpha-glucosidase assay, maltose substrate (Glucose GO Kit). In short, it runs like this: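 Partially purified alpha-glucosidase from rat intestinal powder was preincubated 60 min at 37 °C with serial compound dilutions, then given maltose or sucrose and incubated 30 min at 37 °C.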

Experiment [4] deals with rat sucrase (partially purified alpha-glucosidase from intestinal rat powder) (Rattus norvegicus, UniProt P23739). The experiment in a line: Intestinal alpha-glucosidase assay, sucrose substrate (Glucose GO Kit). In short, it runs like this:
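Partially purified rat intestinal alpha-glucosidase preincubated 60 min at 37 °C with serial compound dilutions, then sucrose substrate added for 30 min at 37 °C. Reaction stopped by 5 min at 90 °C; released glucose detected with Glucose GO kit. IC50 from 4-PL fit of % inhibition vs concentration.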

rat sucrase (partially purified alpha-glucosidase from intestinal rat powder), sequence (P23739 whole entry): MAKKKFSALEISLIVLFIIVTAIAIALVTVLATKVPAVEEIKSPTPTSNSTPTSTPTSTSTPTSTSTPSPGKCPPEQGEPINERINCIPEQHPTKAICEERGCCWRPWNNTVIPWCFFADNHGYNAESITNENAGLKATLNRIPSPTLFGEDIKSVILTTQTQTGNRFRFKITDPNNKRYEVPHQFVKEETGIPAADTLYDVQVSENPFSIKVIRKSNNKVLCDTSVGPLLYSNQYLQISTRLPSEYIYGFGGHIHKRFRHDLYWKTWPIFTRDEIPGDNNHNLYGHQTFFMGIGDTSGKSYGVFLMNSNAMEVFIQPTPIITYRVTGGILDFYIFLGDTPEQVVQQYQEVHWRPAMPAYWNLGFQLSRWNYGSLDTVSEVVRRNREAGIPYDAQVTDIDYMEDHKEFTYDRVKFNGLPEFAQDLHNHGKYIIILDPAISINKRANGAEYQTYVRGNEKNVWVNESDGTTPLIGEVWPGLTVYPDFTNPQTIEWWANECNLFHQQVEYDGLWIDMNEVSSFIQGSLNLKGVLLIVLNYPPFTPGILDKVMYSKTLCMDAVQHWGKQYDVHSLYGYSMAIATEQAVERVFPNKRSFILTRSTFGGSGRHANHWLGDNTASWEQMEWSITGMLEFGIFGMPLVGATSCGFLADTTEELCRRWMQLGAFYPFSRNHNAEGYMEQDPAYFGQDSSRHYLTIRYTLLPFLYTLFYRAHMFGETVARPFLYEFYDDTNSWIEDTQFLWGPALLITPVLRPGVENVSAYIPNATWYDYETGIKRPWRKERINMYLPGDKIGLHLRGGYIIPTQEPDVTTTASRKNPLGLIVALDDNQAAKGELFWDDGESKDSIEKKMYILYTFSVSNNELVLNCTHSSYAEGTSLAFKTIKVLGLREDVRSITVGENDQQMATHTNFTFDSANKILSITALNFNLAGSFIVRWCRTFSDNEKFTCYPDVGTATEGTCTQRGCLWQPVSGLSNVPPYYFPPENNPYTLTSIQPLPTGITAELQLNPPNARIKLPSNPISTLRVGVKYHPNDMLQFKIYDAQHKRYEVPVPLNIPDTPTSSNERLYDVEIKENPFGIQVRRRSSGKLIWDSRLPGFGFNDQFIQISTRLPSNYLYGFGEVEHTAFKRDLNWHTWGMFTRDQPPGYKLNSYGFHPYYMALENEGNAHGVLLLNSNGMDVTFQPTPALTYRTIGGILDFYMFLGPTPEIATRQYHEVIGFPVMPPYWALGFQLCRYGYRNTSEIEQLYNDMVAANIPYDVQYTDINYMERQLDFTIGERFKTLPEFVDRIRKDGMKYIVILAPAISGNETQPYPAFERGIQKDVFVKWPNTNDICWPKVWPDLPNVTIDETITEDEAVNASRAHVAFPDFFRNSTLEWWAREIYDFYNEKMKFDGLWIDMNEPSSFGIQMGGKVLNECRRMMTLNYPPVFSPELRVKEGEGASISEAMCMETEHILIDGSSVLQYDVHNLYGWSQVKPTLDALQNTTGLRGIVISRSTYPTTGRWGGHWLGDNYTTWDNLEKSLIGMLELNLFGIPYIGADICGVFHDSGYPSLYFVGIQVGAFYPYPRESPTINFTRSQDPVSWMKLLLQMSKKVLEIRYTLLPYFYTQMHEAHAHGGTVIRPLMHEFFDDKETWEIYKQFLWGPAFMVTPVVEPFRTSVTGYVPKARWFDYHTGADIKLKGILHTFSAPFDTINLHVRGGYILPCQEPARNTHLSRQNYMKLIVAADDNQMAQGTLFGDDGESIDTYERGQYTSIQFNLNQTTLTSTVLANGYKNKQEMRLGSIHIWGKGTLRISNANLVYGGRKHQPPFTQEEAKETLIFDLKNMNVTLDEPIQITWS

Broadly, the IC50 is the concentration at which inhibition is half-maximal. In the case of `O=[N+]([O-])c1cc(N2CCOCC2)ccc1NCc1ccc(CN2C[C@@H](O)[C@H](O)[C@@H](O)[C@@H]2CO)cc1` (stereo in doubt) [Compound 1069, (2S,3S,4S,5R)-2-(hydroxymethyl)-1-{[4-({[4-(morpholin-4-yl)-2-nitrophenyl]amino}methyl)phenyl]methyl}piperidine-3,4,5-triol], the IC50 was 0.068 µM in experiment [1], 3.09 µM in experiment [2], less than 0.001 µM in experiment [3] and 0.008 µM in experiment [4].
Consider `CN(Cc1ccc(CN2C[C@H](O)[C@@H](O)[C@H](O)[C@H]2CO)cc1)c1cc(-c2cccnn2)cc(C2CC2)c1` [Compound 1001, (2R,3R,4R,5S)-1-{[4-({[3-cyclopropyl-5-(pyridazin-3-yl)phenyl](methyl)amino}methyl)phenyl]methyl}-2-(hydroxymethyl)piperidine-3,4,5-triol], for which the IC50 in experiment [1] was 0.091 µM; in experiment [2], 99.7 µM; in experiment [3] it was less than 0.001 µM; in experiment [4], 0.015 µM.
In the case of `Cc1cc(CN2CCOCC2)cc(NCCCCCCN2C[C@H](O)[C@@H](O)[C@H](O)[C@H]2CO)c1` [Compound 1003, (2R,3R,4R,5S)-2-(hydroxymethyl)-1-[6-({3-methyl-5-[(morpholin-4-yl)methyl]phenyl}amino)hexyl]piperidine-3,4,5-triol], the IC50 in experiment [1] was 0.299 µM; in experiment [2] it was 7.68 µM; in experiment [3], 0.021 µM; in experiment [4] it was 0.382 µM.
In the same order, the values of `Cc1cc(CN2CCOCC2)cc(NCc2ccc(CN3C[C@H](O)[C@@H](O)[C@H](O)[C@H]3CO)cc2)c1` [Compound 1005, (2R,3R,4R,5S)-2-(hydroxymethyl)-1-({4-[({3-methyl-5-[(morpholin-4-yl)methyl]phenyl}amino)methyl]phenyl}methyl)piperidine-3,4,5-triol] are 0.802 µM, more than 100 µM, 0.058 µM and 0.661 µM.
Take `OC[C@@H]1[C@@H](O)[C@H](O)[C@@H](O)CN1CCCCCCNc1cc(C2CC2)cc(N2CCOCC2)c1` [Compound 1006, (2R,3R,4R,5S)-1-(6-{[3-cyclopropyl-5-(morpholin-4-yl)phenyl]amino}hexyl)-2-(hydroxymethyl)piperidine-3,4,5-triol]: the half-maximal inhibitory concentration (IC50) worked out at 0.124 µM in experiment [1], 0.618 µM in experiment [2], 0.01 µM in experiment [3] and 0.116 µM in experiment [4].
In the same order, the values of `N#Cc1cc(NCc2cccc(CN3C[C@H](O)[C@@H](O)[C@H](O)[C@H]3CO)c2)cc(-c2ccc[nH]2)c1` [Compound 1045, 3-(1H-pyrrol-2-yl)-5-{[(3-{[(2R,3R,4R,5S)-3,4,5-trihydroxy-2-(hydroxymethyl)piperidin-1-yl]methyl}phenyl)methyl]amino}benzonitrile] are 1.96 µM, 60.7 µM, less than 0.001 µM and less than 0.001 µM.
In the same order, the values of `N#Cc1cc(NCc2cccc(CN3C[C@H](O)[C@@H](O)[C@H](O)[C@H]3CO)c2)cc(-c2cccnn2)c1` [Compound 1046, 3-(pyridazin-3-yl)-5-{[(3-{[(2R,3R,4R,5S)-3,4,5-trihydroxy-2-(hydroxymethyl)piperidin-1-yl]methyl}phenyl)methyl]amino}benzonitrile] are 1.63 µM, 87.3 µM, 0.006 µM and 0.052 µM.
In the same order, the values of `N#Cc1cc(NCc2cccc(CN3C[C@H](O)[C@@H](O)[C@H](O)[C@H]3CO)c2)cc(-c2ncccn2)c1` [Compound 1047, 3-(pyrimidin-2-yl)-5-{[(3-{[(2R,3R,4R,5S)-3,4,5-trihydroxy-2-(hydroxymethyl)piperidin-1-yl]methyl}phenyl)methyl]amino}benzonitrile] are 1.47 µM, 87.3 µM, less than 0.001 µM and 0.011 µM.
For the molecule `Cc1cc(NCc2ccc(CN3C[C@H](O)[C@@H](O)[C@H](O)[C@H]3CO)cc2)cc(N2CCOCC2)c1` [Compound 1048, (2R,3R,4R,5S)-2-(hydroxymethyl)-1-{[4-({[3-methyl-5-(morpholin-4-yl)phenyl]amino}methyl)phenyl]methyl}piperidine-3,4,5-triol], the IC50 is 0.366 µM in experiment [1], more than 100 µM in experiment [2], 0.013 µM in experiment [3] and 0.059 µM in experiment [4].
As for `Cc1cc(NCc2ccc(CN3C[C@H](O)[C@@H](O)[C@H](O)[C@H]3CO)cc2)cc(C2=COCCO2)c1` [Compound 1050, (2R,3R,4R,5S)-1-{[4-({[3-(5,6-dihydro-1,4-dioxin-2-yl)-5-methylphenyl]amino}methyl)phenyl]methyl}-2-(hydroxymethyl)piperidine-3,4,5-triol], the half-maximal inhibitory concentration (IC50) is 0.278 µM in experiment [1], more than 100 µM in experiment [2], less than 0.001 µM in experiment [3] and 0.004 µM in experiment [4].
In the same order, the values of `Cc1cc(NCc2ccc(CN3C[C@H](O)[C@@H](O)[C@H](O)[C@H]3CO)cc2)cc(-c2ccc[nH]2)c1` [Compound 1051, (2R,3R,4R,5S)-2-(hydroxymethyl)-1-{[4-({[3-methyl-5-(1H-pyrrol-2-yl)phenyl]amino}methyl)phenyl]methyl}piperidine-3,4,5-triol] are 0.291 µM, 15 µM, less than 0.001 µM and less than 0.001 µM.
In the same order, the values of `Cc1cc(NCc2ccc(CN3C[C@H](O)[C@@H](O)[C@H](O)[C@H]3CO)cc2)cc(-c2ncccn2)c1` [Compound 1053, (2R,3R,4R,5S)-2-(hydroxymethyl)-1-{[4-({[3-methyl-5-(pyrimidin-2-yl)phenyl]amino}methyl)phenyl]methyl}piperidine-3,4,5-triol] are 0.118 µM, more than 100 µM, 0.002 µM and 0.023 µM.
Regarding `CS(=O)(=O)c1cc(NCc2ccc(CN3C[C@H](O)[C@@H](O)[C@H](O)[C@H]3CO)cc2)cc(N2CCOCC2)c1` [Compound 1054, (2R,3R,4R,5S)-2-(hydroxymethyl)-1-{[4-({[3-methanesulfonyl-5-(morpholin-4-yl)phenyl]amino}methyl)phenyl]methyl}piperidine-3,4,5-triol], the half-maximal inhibitory concentration (IC50) is 0.371 µM in experiment [1], more than 100 µM in experiment [2], 0.057 µM in experiment [3] and 0.16 µM in experiment [4].
In the same order, the values of `CS(=O)(=O)c1cc(NCc2ccc(CN3C[C@H](O)[C@@H](O)[C@H](O)[C@H]3CO)cc2)cc(-c2ncccn2)c1` [Compound 1059, (2R,3R,4R,5S)-2-(hydroxymethyl)-1-{[4-({[3-methanesulfonyl-5-(pyrimidin-2-yl)phenyl]amino}methyl)phenyl]methyl}piperidine-3,4,5-triol] are 0.074 µM, more than 100 µM, 0.008 µM and 0.045 µM.
Regarding `N#Cc1cc(NCc2ccc(CN3C[C@H](O)[C@@H](O)[C@H](O)[C@H]3CO)cc2)cc(N2CCOCC2)c1` [Compound 1060, 3-(morpholin-4-yl)-5-{[(4-{[(2R,3R,4R,5S)-3,4,5-trihydroxy-2-(hydroxymethyl)piperidin-1-yl]methyl}phenyl)methyl]amino}-benzonitrile], the IC50 in experiment [1] is 0.086 µM; in experiment [2] it was more than 100 µM; in experiment [3], 0.009 µM; in experiment [4] it was 0.052 µM.
`N#Cc1cc(NCc2ccc(CN3C[C@H](O)[C@@H](O)[C@H](O)[C@H]3CO)cc2)cc(C2=COCCO2)c1` [Compound 1062, 3-(5,6-dihydro-1,4-dioxin-2-yl)-5-{[(4-{[(2R,3R,4R,5S)-3,4,5-trihydroxy-2-(hydroxymethyl)piperidin-1-yl]methyl}phenyl)-methyl]amino}benzonitrile]: the IC50 is 0.068 µM in experiment [1], 35.5 µM in experiment [2], less than 0.001 µM in experiment [3] and less than 0.001 µM in experiment [4].
Consider `N#Cc1cc(NCc2ccc(CN3C[C@H](O)[C@@H](O)[C@H](O)[C@H]3CO)cc2)cc(-c2ccc[nH]2)c1` [Compound 1063, 3-(1H-pyrrol-2-yl)-5-{[(4-{[(2R,3R,4R,5S)-3,4,5-trihydroxy-2-(hydroxymethyl)piperidin-1-yl]methyl}phenyl)methyl]amino}-benzonitrile], for which the IC50 was 0.032 µM in experiment [1], more than 100 µM in experiment [2], less than 0.001 µM in experiment [3] and less than 0.001 µM in experiment [4].
